Data published in patent publication US20240190849A1, “AMINOPYRIMIDINE COMPOUNDS AND METHODS OF THEIR USE” (TYRA BIOSCIENCES, INC., priority 2021, published 2024).

How the values were obtained:
Conditions in all cases: FGFR binding data
[1] = target: T1, FGFR3 (Homo sapiens, UniProt P22607); assay: Kinase binding assay (kinase-tagged T7 phage, affinity beads, qPCR readout), FGFR3
T1 construct: made in house; host or cells: E. coli derived from BL21, infected with T7 phage
Protocol: (§1) Kinase-tagged T7 phage strains were prepared in an E. coli host derived from the BL21 strain. E. coli were grown to log-phase and infected with T7 phage and incubated with shaking at 32° C. until lysis. The lysates were centrifuged and filtered to remove cell debris. Streptavidin-coated magnetic beads were treated with biotinylated small molecule ligands for 30 minutes at room temperature to generate affinity resins for kinase assays. The liganded beads were blocked with excess biotin and washed with blocking buffer SeaBlock (Pierce), 1% BSA, 0.05% Tween 20, 1 mM DTT to remove unbound ligand and to reduce non-specific binding. Binding reactions were assembled by combining kinases, liganded affinity beads, and test compounds in 1× binding buffer (20% SeaBlock, 0.17×PBS, 0.05% Tween 20, 6 mM DTT).
(§2) Test compounds were prepared as 111× stocks in 100% DMSO. Kds were determined using an 11-point 3-fold compound dilution series with three DMSO control points. All compounds for Kd measurements are distributed by acoustic transfer (non-contact dispensing) in 100% DMSO. The compounds were then diluted directly into the assays such that the final concentration of DMSO was 0.9%. All reactions performed in polypropylene 384-well plate. Each was a final volume of 0.02 ml. The assay plates were incubated at room temperature with shaking for 1 hour and the affinity beads were washed with wash buffer (1×PBS, 0.05% Tween 20). The beads were then re-suspended in elution buffer (1×PBS, 0.05% Tween 20, 0.5 μM non-biotinylated affinity ligand) and incubated at room temperature with shaking for 30 minutes. The kinase concentration in the eluates was measured by qPCR.
(§3) Binding constants were calculated with a standard dose-response curve using the Hill equation: […]
(§4) The Hill Slope was set to −1. Curves were fitted using a non-linear least square fit with the Levenberg-Marquardt algorithm.

[2] = target: T2, FGFR2 (Homo sapiens, UniProt P21802); assay: Kinase binding assay (kinase-tagged T7 phage, affinity beads, qPCR readout), FGFR2
T2 construct: made in house; host or cells: E. coli derived from BL21, infected with T7 phage
T2 sequence (P21802 22-821): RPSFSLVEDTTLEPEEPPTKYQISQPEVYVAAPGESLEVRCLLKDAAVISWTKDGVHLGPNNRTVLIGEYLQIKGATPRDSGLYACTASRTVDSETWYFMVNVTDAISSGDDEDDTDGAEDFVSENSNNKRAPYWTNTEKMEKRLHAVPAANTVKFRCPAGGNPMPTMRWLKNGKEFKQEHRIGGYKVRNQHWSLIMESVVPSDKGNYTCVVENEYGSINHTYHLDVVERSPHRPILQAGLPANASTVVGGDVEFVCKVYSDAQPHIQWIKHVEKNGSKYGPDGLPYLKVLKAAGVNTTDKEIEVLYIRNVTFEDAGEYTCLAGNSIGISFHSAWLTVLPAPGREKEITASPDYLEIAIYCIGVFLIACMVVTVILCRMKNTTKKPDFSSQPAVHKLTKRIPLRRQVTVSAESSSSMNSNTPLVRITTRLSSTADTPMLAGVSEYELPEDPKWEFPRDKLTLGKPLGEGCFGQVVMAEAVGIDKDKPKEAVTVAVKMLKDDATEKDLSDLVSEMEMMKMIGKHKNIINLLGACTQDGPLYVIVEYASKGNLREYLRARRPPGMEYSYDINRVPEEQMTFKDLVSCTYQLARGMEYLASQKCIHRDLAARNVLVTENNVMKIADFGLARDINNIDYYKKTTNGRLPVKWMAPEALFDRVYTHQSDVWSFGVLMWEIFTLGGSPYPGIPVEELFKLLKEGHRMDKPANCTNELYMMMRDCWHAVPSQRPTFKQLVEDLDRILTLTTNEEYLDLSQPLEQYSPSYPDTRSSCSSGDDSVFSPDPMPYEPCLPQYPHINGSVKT
Protocol: as §1, §2, §3, §4

[3] = target: T3, FGFR3 (V555M) (Homo sapiens, UniProt P22607, V555M); assay: Kinase binding assay (kinase-tagged T7 phage, affinity beads, qPCR readout), FGFR3 (V555M)
T3 construct: made in house; host or cells: E. coli derived from BL21, infected with T7 phage
T3 sequence (P22607 23-806 V555M): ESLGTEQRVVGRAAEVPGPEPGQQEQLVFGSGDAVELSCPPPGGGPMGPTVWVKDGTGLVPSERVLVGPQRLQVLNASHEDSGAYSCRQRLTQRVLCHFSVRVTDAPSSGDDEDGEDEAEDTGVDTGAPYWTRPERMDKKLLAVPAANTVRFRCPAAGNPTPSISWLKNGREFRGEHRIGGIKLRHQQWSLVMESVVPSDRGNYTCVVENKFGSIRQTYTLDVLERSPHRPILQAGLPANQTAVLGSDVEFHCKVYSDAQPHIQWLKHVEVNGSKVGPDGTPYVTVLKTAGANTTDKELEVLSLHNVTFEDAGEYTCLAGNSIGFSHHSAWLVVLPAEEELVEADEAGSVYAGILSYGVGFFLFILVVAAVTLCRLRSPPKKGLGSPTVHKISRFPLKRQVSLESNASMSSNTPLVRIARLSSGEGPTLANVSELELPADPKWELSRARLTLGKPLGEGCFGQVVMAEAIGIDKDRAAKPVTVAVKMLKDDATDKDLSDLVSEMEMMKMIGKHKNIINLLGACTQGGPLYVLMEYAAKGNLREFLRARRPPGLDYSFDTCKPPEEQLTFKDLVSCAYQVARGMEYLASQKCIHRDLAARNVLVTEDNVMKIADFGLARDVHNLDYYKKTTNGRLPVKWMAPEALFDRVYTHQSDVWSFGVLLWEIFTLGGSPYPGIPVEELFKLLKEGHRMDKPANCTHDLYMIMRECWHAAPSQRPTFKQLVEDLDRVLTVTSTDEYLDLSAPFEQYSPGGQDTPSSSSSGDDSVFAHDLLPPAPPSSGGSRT
Protocol: as §1, §2, §3, §4

[4] = target: T4, FGFR1 (Homo sapiens, UniProt P11362); assay: Kinase binding assay (kinase-tagged T7 phage, affinity beads, qPCR readout), FGFR1
T4 construct: made in house; host or cells: E. coli derived from BL21, infected with T7 phage
T4 sequence (P11362 22-822): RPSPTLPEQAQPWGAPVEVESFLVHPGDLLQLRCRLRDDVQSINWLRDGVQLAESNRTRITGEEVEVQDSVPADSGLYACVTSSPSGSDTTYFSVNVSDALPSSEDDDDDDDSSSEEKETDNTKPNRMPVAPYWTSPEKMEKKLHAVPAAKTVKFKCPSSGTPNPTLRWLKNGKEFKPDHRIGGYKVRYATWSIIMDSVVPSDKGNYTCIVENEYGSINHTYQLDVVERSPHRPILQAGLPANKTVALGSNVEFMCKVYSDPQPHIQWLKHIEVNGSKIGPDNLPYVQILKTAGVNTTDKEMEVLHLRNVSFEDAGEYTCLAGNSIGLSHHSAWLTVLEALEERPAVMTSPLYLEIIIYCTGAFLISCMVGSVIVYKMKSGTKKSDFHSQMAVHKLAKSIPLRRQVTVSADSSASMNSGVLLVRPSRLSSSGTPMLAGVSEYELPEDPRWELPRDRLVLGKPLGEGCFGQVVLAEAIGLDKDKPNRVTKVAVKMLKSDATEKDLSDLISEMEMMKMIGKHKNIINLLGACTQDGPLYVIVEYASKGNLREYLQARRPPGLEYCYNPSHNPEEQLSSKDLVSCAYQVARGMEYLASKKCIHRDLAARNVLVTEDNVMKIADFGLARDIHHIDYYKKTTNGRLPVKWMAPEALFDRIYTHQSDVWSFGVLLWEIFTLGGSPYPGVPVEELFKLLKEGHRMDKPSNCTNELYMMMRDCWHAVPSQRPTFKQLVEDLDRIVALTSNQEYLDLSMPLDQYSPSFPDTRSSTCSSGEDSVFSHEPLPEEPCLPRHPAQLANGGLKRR
Protocol: as §1, §2, §3, §4

T1 sequence (P22607 23-806): as the sequence (P22607 23-806 V555M) above, with M533V counted along it

In the case of C=CC(=O)Nc1ccc2c(c1)c(C)cn2-c1nc(Nc2cnn(CCO)c2C)ncc1F [Example 192, N-[1-[5-fluoro-2-[[1-(2-hydroxyethyl)-5-methyl-pyrazol-4-yl]amino]pyrimidin-4-yl]-3-methyl-indol-5-yl]prop-2-enamide], the Kd [1] is reported as 0.1 to 100 nM, the Kd [2] is reported as 0.1 to 100 nM and the Kd [3] is reported as 0.1 to 100 nM. For the same compound, the Kd [4] was 0.1 to 100 nM.

With C=CC(=O)Nc1cc(C)c2c(c1)c(C)cn2-c1nc(Nc2ccc(N3CCOCC3)cc2)ncc1Cl [Example 74, N-[1-[5-chloro-2-(4-morpholinoanilino)pyrimidin-4-yl]-3,7-dimethyl-indol-5-yl]prop-2-enamide] the Kd [1] was 0.1 to 100 nM, the Kd [2] was 0.1 to 100 nM and the Kd [3] was 0.1 to 100 nM. For the same compound, the Kd [4] was 0.1 to 100 nM.

Work on C=CC(=O)Nc1ccc2c(c1)c(C)cn2-c1nc(Nc2cnn(CC(C)OC)c2)ncc1F (stereo not drawn) [Example 204, N-[1-[5-fluoro-2-[[1-(2-methoxypropyl)pyrazol-4-yl]amino]pyrimidin-4-yl]-3-methyl-indol-5-yl]prop-2-enamide] yielded a Kd [1] of 0.1 to 100 nM, a Kd [2] of 0.1 to 100 nM and a Kd [3] of 0.1 to 100 nM. The Kd [4] was 0.1 to 100 nM.

For CCn1ccc(Nc2ncc(C)c(-n3cc(C)c4cc(NC(=O)/C=C/CN(C)C)cnc43)n2)n1 [Example 115, (E)-4-(dimethylamino)-N-[1-[2-[(1-ethylpyrazol-3-yl)amino]-5-methyl-pyrimidin-4-yl]-3-methyl-pyrrolo[2,3-b]pyridin-5-yl]but-2-enamide], the Kd [1] was 0.1 to 100 nM, the Kd [2] was 100 to 250 nM and the Kd [3] was 0.1 to 100 nM. For the same compound, the Kd [4] was 100 to 250 nM.

C=CC(=O)Nc1cnc2c(c1)c(C)cn2-c1nc(Nc2ccn(C3COC3)n2)ncc1C [Example 113, N-[3-methyl-1-[5-methyl-2-[[1-(oxetan-3-yl)pyrazol-3-yl]amino]-pyrimidin-4-yl]pyrrolo[2,3-b]pyridin-5-yl]prop-2-enamide] showed a Kd [1] of 0.1 to 100 nM, a Kd [2] of 0.1 to 100 nM and a Kd [3] of 0.1 to 100 nM. It also gave a Kd [4] of 0.1 to 100 nM.

For C=CC(=O)Nc1ccc2c(-c3nc(Nc4cn(CC)nc4C)ncc3F)cn(C)c2c1 [Example 177, N-[3-[2-[(1-ethyl-3-methyl-pyrazol-4-yl)amino]-5-fluoro-pyrimidin-4-yl]-1-methyl-indol-6-yl]prop-2-enamide], the Kd [1] was 0.1 to 100 nM, the Kd [2] was 0.1 to 100 nM and the Kd [3] was 0.1 to 100 nM. It also gave a Kd [4] of 250 to 1000 nM.

CC#CC(=O)Nc1ccc2c(-c3ccnc(Nc4cnn(CCO)c4)n3)cn(C)c2c1 [Example 145, N-[3-[2-[[1-(2-hydroxyethyl)pyrazol-4-yl]amino]pyrimidin-4-yl]-1-methyl-indol-6-yl]but-2-ynamide] showed a Kd [1] of 250 to 1000 nM, a Kd [2] of 250 to 1000 nM and a Kd [3] of 250 to 1000 nM. It also gave a Kd [4] of over 1000 nM.

Work on C=CC(=O)Nc1ccc2c(-c3nc(Nc4ccc(N5CCN(C)CC5)c(OC)c4)ncc3Cl)cn(C)c2c1 [Example 48, N-[3-[5-chloro-2-[3-methoxy-4-(4-methylpiperazin-1-yl)anilino]-pyrimidin-4-yl]-1-methyl-indol-6-yl]prop-2-enamide] yielded a Kd [1] of 0.1 to 100 nM, a Kd [2] of 0.1 to 100 nM and a Kd [3] of 0.1 to 100 nM. For the same compound, the Kd [4] was 0.1 to 100 nM.

C=CC(=O)Nc1ccc2c(c1)c(C)cn2-c1nc(Nc2ccc(N3CCOCC3)nc2)ncc1Cl [Example 91, N-[1-[5-chloro-2-[(6-morpholino-3-pyridyl)amino]pyrimidin-4-yl]-3-methyl-indol-5-yl]prop-2-enamide] showed a Kd [1] of 0.1 to 100 nM, a Kd [2] of 0.1 to 100 nM and a Kd [3] of 0.1 to 100 nM. It also gave a Kd [4] of 0.1 to 100 nM.

Work on C=CC(=O)Nc1cnc2c(c1)c(C)cn2-c1ccnc(Nc2ccnn2C)n1 [Example 83, N-[3-methyl-1-[2-[(2-methylpyrazol-3-yl)amino]pyrimidin-4-yl]pyrrolo[2,3-b]pyridin-5-yl]prop-2-enamide] yielded a Kd [1] of 0.1 to 100 nM, a Kd [2] of 0.1 to 100 nM and a Kd [3] of 0.1 to 100 nM. It also gave a Kd [4] of 0.1 to 100 nM.

C=CC(=O)Nc1ccc2c(c1)c(C)cn2-c1nc(Nc2cc(C)nn2C)ncc1Cl [Example 56, N-[1-[5-chloro-2-[(2,5-dimethylpyrazol-3-yl)amino]-pyrimidin-4-yl]-3-methyl-indol-5-yl]prop-2-enamide] gave a Kd [1] of 0.1 to 100 nM, a Kd [2] of 0.1 to 100 nM and a Kd [3] of 0.1 to 100 nM. The Kd [4] was 100 to 250 nM.

Work on C=CC(=O)Nc1ccc2c(-c3ccnc(Nc4cn(C)nc4C)n3)cn(C)c2c1 [Example 172, N-[3-[2-[(1,3-dimethylpyrazol-4-yl)amino]pyrimidin-4-yl]-1-methyl-indol-6-yl]prop-2-enamide] yielded a Kd [1] of 0.1 to 100 nM, a Kd [2] of 0.1 to 100 nM and a Kd [3] of 0.1 to 100 nM. The Kd [4] was 250 to 1000 nM.

C=CC(=O)Nc1ccc2c(-c3nc(Nc4ccc(N5CCOCC5)nc4)ncc3Cl)cn(C)c2c1 [Example 45, N-[3-[5-chloro-2-[(6-morpholino-3-pyridyl)amino]pyrimidin-4-yl]-1-methyl-indol-6-yl]prop-2-enamide] showed a Kd [1] of 0.1 to 100 nM, a Kd [2] of 0.1 to 100 nM and a Kd [3] of 0.1 to 100 nM. The Kd [4] was 0.1 to 100 nM.

Work on C=CC(=O)Nc1ccc2c(c1)c(C)cn2-c1nc(Nc2ccc(N3CCOCC3)c(OC)c2)ncc1C [Example 46, N-[1-[2-(3-methoxy-4-morpholino-anilino)-5-methyl-pyrimidin-4-yl]-3-methyl-indol-5-yl]prop-2-enamide] yielded a Kd [1] of 0.1 to 100 nM, a Kd [2] of 0.1 to 100 nM and a Kd [3] of 0.1 to 100 nM. For the same compound, the Kd [4] was 0.1 to 100 nM.

C=CC(=O)Nc1ccc2c(c1)c(C)cn2-c1nc(Nc2cnnn2C)ncc1Cl [Example 72, N-[1-[5-chloro-2-[(3-methyltriazol-4-yl)amino]pyrimidin-4-yl]-3-methyl-indol-5-yl]prop-2-enamide] showed a Kd [1] of 0.1 to 100 nM, a Kd [2] of 0.1 to 100 nM and a Kd [3] of 0.1 to 100 nM. For the same compound, the Kd [4] was 0.1 to 100 nM.

Work on C=CC(=O)Nc1ccc2c(c1)c(C)cn2-c1nc(Nc2ccn(C3CC3)n2)ncc1C [Example 99, N-[1-[2-[(1-cyclopropylpyrazol-3-yl)amino]-5-methyl-pyrimidin-4-yl]-3-methyl-indol-5-yl]prop-2-enamide] yielded a Kd [1] of 0.1 to 100 nM, a Kd [2] of 0.1 to 100 nM and a Kd [3] of 0.1 to 100 nM. For the same compound, the Kd [4] was 0.1 to 100 nM.

With C=CC(=O)Nc1ccc2c(c1)c(C)cn2-c1nc(Nc2conc2C)ncc1F [Example 155, N-[1-[5-fluoro-2-[(3-methylisoxazol-4-yl)amino]pyrimidin-4-yl]-3-methyl-indol-5-yl]prop-2-enamide] the Kd [1] was 0.1 to 100 nM, the Kd [2] was 0.1 to 100 nM and the Kd [3] was 0.1 to 100 nM. For the same compound, the Kd [4] was 100 to 250 nM.

C#CC(=O)Nc1cnc2c(c1)c(C)cn2-c1nc(Nc2cnn(CCO)c2)ncc1C [Example 141, N-[1-[2-[[1-(2-hydroxyethyl)pyrazol-4-yl]amino]-5-methyl-pyrimidin-4-yl]-3-methyl-pyrrolo[2,3-b]pyridin-5-yl]prop-2-ynamide] showed a Kd [1] of 0.1 to 100 nM, a Kd [2] of 0.1 to 100 nM and a Kd [3] of 0.1 to 100 nM. It also gave a Kd [4] of 0.1 to 100 nM.

C=CC(=O)Nc1ccc2c(-c3ccnc(Nc4cn(CC)nc4C)n3)cn(C)c2c1 [Example 173, N-[3-[2-[(1-ethyl-3-methyl-pyrazol-4-yl)amino]pyrimidin-4-yl]-1-methyl-indol-6-yl]prop-2-enamide] showed a Kd [1] of 0.1 to 100 nM, a Kd [2] of 100 to 250 nM and a Kd [3] of 0.1 to 100 nM. The Kd [4] was 250 to 1000 nM.

Cc1cn(-c2nc(Nc3cnn(C[C@H](C)O)c3)ncc2F)c2ncc(NC(=O)/C=C/CN3CCOCC3)cc12 [Example 198, (E)-N-[1-[5-fluoro-2-[[1-[(2S)-2-hydroxypropyl]pyrazol-4-yl]amino]pyrimidin-4-yl]-3-methyl-pyrrolo[2,3-b]pyridin-5-yl]-4-morpholino-but-2-enamide] showed a Kd [1] of 100 to 250 nM, a Kd [2] of 100 to 250 nM and a Kd [3] of 250 to 1000 nM. The Kd [4] was 250 to 1000 nM.

For Cc1nn(C)cc1Nc1ncc(F)c(-n2cc(C)c3cc(NC(=O)/C=C/CN4CCOCC4)cnc32)n1 [Example 213, (E)-N-[1-[2-[(1,3-dimethylpyrazol-4-yl)amino]-5-fluoro-pyrimidin-4-yl]-3-methyl-pyrrolo[2,3-b]pyridin-5-yl]-4-morpholino-but-2-enamide], the Kd [1] was over 1000 nM, the Kd [2] was over 1000 nM and the Kd [3] was over 1000 nM. The Kd [4] was over 1000 nM.

In the case of C#CC(=O)Nc1ccc2c(c1)c(C)cn2-c1nc(Nc2cnn(CCO)c2)ncc1F [Example 129, N-[1-[5-fluoro-2-[[1-(2-hydroxyethyl)pyrazol-4-yl]amino]pyrimidin-4-yl]-3-methyl-indol-5-yl]prop-2-ynamide], the Kd [1] is reported as 0.1 to 100 nM, the Kd [2] is reported as 0.1 to 100 nM and the Kd [3] is reported as 0.1 to 100 nM. The Kd [4] was 0.1 to 100 nM.

Work on C=CC(=O)Nc1ccc2c(ccn2-c2nc(Nc3cccc(OCCN4CCOCC4)c3)ncc2C)c1C [Example 5, N-[4-methyl-1-[5-methyl-2-[3-(2-morpholinoethoxy)anilino]pyrimidin-4-yl]indol-5-yl]prop-2-enamide] yielded a Kd [1] of 100 to 250 nM, a Kd [2] of 100 to 250 nM and a Kd [3] of 0.1 to 100 nM. It also gave a Kd [4] of 250 to 1000 nM.

C=CC(=O)Nc1cnc2c(c1)c(C)cn2-c1nc(Nc2ccn(CCO)n2)ncc1C [Example 119, N-[1-[2-[[1-(2-hydroxyethyl)pyrazol-3-yl]amino]-5-methyl-pyrimidin-4-yl]-3-methyl-pyrrolo[2,3-b]pyridin-5-yl]prop-2-enamide] gave a Kd [1] of 0.1 to 100 nM, a Kd [2] of 0.1 to 100 nM and a Kd [3] of 0.1 to 100 nM. It also gave a Kd [4] of 0.1 to 100 nM.
